According to BigSolDB 2.1:

Details: in water

CC(C)Br
Details	solubility (mole fraction)
295.25 K	0.000587
300.15 K	0.00082
303.55 K	0.00104
306.25 K	0.00121
310.35 K	0.00157
313.25 K	0.00189
316.15 K	0.00227
321.25 K	0.00307
323.25 K	0.00343
325.55 K	0.00394
329.35 K	0.00483
331.25 K	0.00536
334.15 K	0.0063
337.35 K	0.00743
340.55 K	0.0087
343.15 K	0.0101
345.45 K	0.0112
348.55 K	0.0127
350.15 K	0.0139
352.35 K	0.0154
354.75 K	0.0171

NC(N)=S
Details	solubility (mole fraction)
290.75 K	0.0256
293.05 K	0.0289
296.65 K	0.0347
300.25 K	0.0413
303.15 K	0.0474
307.1 K	0.0583
310.15 K	0.0641
313.15 K	0.071
315.85 K	0.0806
318.35 K	0.0886
320.75 K	0.0969
323.25 K	0.103
326.05 K	0.116
328.45 K	0.126
330.55 K	0.135
333.25 K	0.15
336.45 K	0.161
340.75 K	0.183
343.55 K	0.198
347.35 K	0.218
351.15 K	0.239
353.45 K	0.251
355.75 K	0.265
